Laboratory results taken from patent US20250154212A1, “METHOD OF DISRUPTING MEMORY AND LIPOPEPTIDE FOR USE IN SUCH METHOD” (The Research Foundation for The State University of New York, priority 2023, published 2025).
“Also recorded” adds a separate entry of the source. Where no end group is shown, it is not given here. The star is where a group is joined. Myristoyl = CCCCCCCCCCCCCC(=O)*

Target: T1, KIBRA-PKMζ interaction (Homo sapiens, UniProt Q05513)
T1 construct: expressed in transfected cells; host or cells: HEK293T
T1 sequence (Q05513 1-409 isoform Q05513-2): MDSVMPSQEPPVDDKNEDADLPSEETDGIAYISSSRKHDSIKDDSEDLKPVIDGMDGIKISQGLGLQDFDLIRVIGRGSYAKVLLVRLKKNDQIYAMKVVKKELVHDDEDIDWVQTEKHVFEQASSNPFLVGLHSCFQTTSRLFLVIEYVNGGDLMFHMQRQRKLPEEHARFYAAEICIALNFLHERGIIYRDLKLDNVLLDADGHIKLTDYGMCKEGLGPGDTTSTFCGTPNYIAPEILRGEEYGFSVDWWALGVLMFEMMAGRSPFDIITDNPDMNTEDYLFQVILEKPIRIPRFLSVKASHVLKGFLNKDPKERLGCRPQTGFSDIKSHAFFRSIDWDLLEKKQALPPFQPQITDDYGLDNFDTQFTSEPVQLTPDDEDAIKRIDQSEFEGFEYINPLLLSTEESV
Experiment: BiFC (split-Venus) assay of KIBRA-PKMζ interaction in transfected HEK293T cells
Assay type: cell-based
Details: for effect on KIBRA-PKMζ interaction/dimerization (BiFC): 10 μM
Experimental: KIBRA-PKMζ BiFC was performed as previously described (28), using pVen1-FLAG-KIBRA and pVen2-HA-PKMζ, in which PKMζ was cloned between EcoR1 and BamH1 sites. The constructs pVen1 and pVen2 encode the N-terminus (amino acids 1-154) and C-terminus (amino acids 155-238) of the Venus protein, respectively, and the Venus fragments were on the N-terminal of the fusion proteins. pVen2-HA-PKMζ[PKCι/λ-P291Q;F297S] was generated by site-directed mutagenesis using forward-cctggagAagcAAatceggatcccccggtCcctgtccgte and reverse-gacggacaggGaccgggggatccggatTTgctTctccagg primers and the QuickChange II XL Site-Directed Mutagenesis Kit (Agilent Technologies), following manufacturer's instructions. Additional pVen2-HA-PKC isoforms and pVen2-HA-CaMKIIα in the pVen2-HA vector were generated by cloning the N-terminus of the coding sequence of each kinase (table S1) to obtain an in-frame fusion at the C-terminus of the pVen2-HA. Human versions of KIBRA and kinases were used, and all PCR amplified sequences and constructs were verified by DNA sequencing.
HEK293T cells were cultured in Dulbecco's Modified Eagle's Medium supplemented with 10% heat-inactivated fetal bovine serum, 100 U/ml penicillin, […] streptomycin, 2 mM glutamine, and 10 mM HEPES in a T75 tissue culture flask with canted neck and ventilated cap. Twenty-four hours prior to transfection, 1×10^5 HEK293T cells in 1 ml of media were plated on poly-D-lysine-treated coverslips in 24-well plates. One hour prior to transfection, 0.5 ml of the media was removed from each well, and ζ-stat or K-ZAP was added to the media that had been removed. The remaining media in each well was then discarded and substituted with the 0.5 ml pre-conditioned media containing ζ-stat or K-ZAP at designated concentrations. For transfection a total of 50 ng of DNA was delivered to each well using Lipofectamine 3000 (Invitrogen) and OptiMEM 1× reduced serum medium (Invitrogen) at a plasmid-to-plasmid ratio of 1:1. The amount of transfected DNA was optimized to produce relatively low concentrations of proteins during overexpression. […]

Row | Compound | effect on KIBRA-PKMζ interaction/dimerization (BiFC) (listed as z-stat) | IC50 (dose-response curve, n's=4, read-out: IC50 for inhibition of KIBRA-PKMζ interaction (BiFC)) | effect on KIBRA-PKMζ interaction/dimerization (BiFC)
1 | O=S(=O)(O)c1cc(O)c2c(S(=O)(=O)O)cc(S(=O)(=O)O)cc2c1 [ζ-stat, 1-naphthol-3,6,8-trisulphonic acid] | inhibits KIBRA interaction with PKMz; also recorded: decreases BIFC | ~1000 nM | 
2 | myr-N-FVRNSLERRSVRMKRPS-C (Myristoyl-FVRNSLERRSVRMKRPS) [K-ZAP] |  |  | inhibits PKMz-KIBRA dimerization
